Test results as given in ChEMBL document CHEMBL1201862, “PubChem BioAssay data set” (2004).
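Method: 48-hour compound exposure of cells in 96-well plates, five concentrations, linear interpolation of endpoints. GI50 is the concentration that inhibits growth by half.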 The source made the active and inactive calls. Cut-off read from the data, not from the text of the source: active = GI50 up to about 1.1 µM and inactive = higher.

What was measured:
Assay in all cases: inhibition of tumour cell growth, NCI panel, 48 h
KM12 = test system: KM12
M14 = test system: M14
MDA-MB-231 = test system: MDA-MB-231
SNB-75 = test system: SNB-75
EKVX = test system: EKVX
OVCAR-5 = test system: OVCAR-5
CAKI-1 = test system: CAKI-1
NCI-H23 = test system: NCI-H23
PC-3 = test system: PC-3
CCRF-CEM = test system: CCRF-CEM
Hs-578T = test system: Hs-578T
ACHN = test system: ACHN
OVCAR-4 = test system: OVCAR-4
RXF 393 = test system: RXF 393
HOP-92 = test system: HOP-92
OVCAR-8 = test system: OVCAR-8
SK-MEL-5 = test system: SK-MEL-5
MDA-MB-435 = test system: MDA-MB-435
SK-MEL-28 = test system: SK-MEL-28
K562 = test system: K562
NCI-H460 = test system: NCI-H460
NCI/ADR-RES = test system: NCI/ADR-RES
UACC-62 = test system: UACC-62
U-251 = test system: U-251
TK-10 = test system: TK-10
HCT-116 = test system: HCT-116
UO-31 = test system: UO-31
UACC-257 = test system: UACC-257
Malme-3M = test system: Malme-3M
SN12C = test system: SN12C
NCI-H522 = test system: NCI-H522
OVCAR-3 = test system: OVCAR-3
T47D = test system: T47D
RPMI-8226 = test system: RPMI-8226
MOLT-4 = test system: MOLT-4
A549 = test system: A549
786-0 = test system: 786-0
LOX IMVI = test system: LOX IMVI
SF-295 = test system: SF-295
HT-29 = test system: HT-29
DU-145 = test system: DU-145
SR = test system: SR
SW-620 = test system: SW-620
IGROV-1 = test system: IGROV-1
COLO 205 = test system: COLO 205
HL-60 = test system: HL-60
HOP-62 = test system: HOP-62
SF-268 = test system: SF-268
NCI-H226 = test system: NCI-H226
SNB-19 = test system: SNB-19
A498 = test system: A498
SF-539 = test system: SF-539
MCF7 = test system: MCF7
HCC 2998 = test system: HCC 2998
SK-MEL-2 = test system: SK-MEL-2
SK-OV-3 = test system: SK-OV-3
HCT-15 = test system: HCT-15

Measured: GI50

COC(=O)[C@@H]1CN(C(=O)Cc2ccccc2)C(=O)N1
inactive: KM12 > 100000 nM | M14 > 100000 nM | MDA-MB-231 > 100000 nM | SNB-75 93800 nM | EKVX > 100000 nM | OVCAR-5 > 100000 nM | CAKI-1 > 100000 nM | NCI-H23 > 100000 nM | PC-3 > 100000 nM | CCRF-CEM > 100000 nM | Hs-578T > 100000 nM | ACHN > 100000 nM | OVCAR-4 > 100000 nM | RXF 393 > 100000 nM | HOP-92 > 100000 nM | OVCAR-8 > 100000 nM | SK-MEL-5 > 100000 nM | MDA-MB-435 > 100000 nM | SK-MEL-28 > 100000 nM | K562 > 100000 nM | NCI-H460 > 100000 nM | NCI/ADR-RES > 100000 nM | UACC-62 > 100000 nM | U-251 > 100000 nM | TK-10 > 100000 nM | HCT-116 > 100000 nM | UO-31 > 100000 nM | UACC-257 > 100000 nM | Malme-3M > 100000 nM | SN12C > 100000 nM | NCI-H522 > 100000 nM | OVCAR-3 > 100000 nM | T47D > 100000 nM | RPMI-8226 > 100000 nM | MOLT-4 > 100000 nM | A549 > 100000 nM | 786-0 > 100000 nM | LOX IMVI > 100000 nM | SF-295 > 100000 nM | HT-29 > 100000 nM | DU-145 > 100000 nM | SR > 100000 nM | SW-620 > 100000 nM | IGROV-1 > 100000 nM | COLO 205 > 100000 nM | HL-60 > 100000 nM | HOP-62 > 100000 nM | SF-268 > 100000 nM | NCI-H226 > 100000 nM | SNB-19 > 100000 nM | A498 > 100000 nM | SF-539 > 100000 nM

COc1ccc2nc3ccccc3c(NCCCCN(CCCl)CCCl)c2c1
244 nM: HCT-15
active: KM12 128 nM | M14 220 nM | MDA-MB-231 700 nM | SNB-75 197 nM | EKVX 535 nM | OVCAR-5 507 nM | CAKI-1 25.3 nM | MCF7 202 nM | NCI-H23 147 nM | PC-3 316 nM | CCRF-CEM 10 nM | ACHN 41 nM | OVCAR-4 148 nM | RXF 393 21.2 nM | HOP-92 527 nM | OVCAR-8 21.8 nM | HCC 2998 1040 nM | SK-MEL-5 292 nM | MDA-MB-435 323 nM | SK-MEL-28 752 nM | K562 37.6 nM | NCI-H460 < 35.2 nM | NCI/ADR-RES 448 nM | UACC-62 245 nM | U-251 75.2 nM | HCT-116 73.3 nM | UO-31 443 nM | UACC-257 1050 nM | Malme-3M 112 nM | SN12C 84.3 nM | NCI-H522 20 nM | OVCAR-3 118 nM | RPMI-8226 < 47.6 nM | MOLT-4 10 nM | A549 162 nM | SK-MEL-2 703 nM | 786-0 43.6 nM | LOX IMVI 59.6 nM | SF-295 86.3 nM | HT-29 43 nM | DU-145 933 nM | SR 40 nM | SW-620 18.8 nM | IGROV-1 227 nM | COLO 205 368 nM | HL-60 18.6 nM | HOP-62 655 nM | SF-268 73.5 nM | NCI-H226 368 nM | SNB-19 783 nM | A498 109 nM | SF-539 136 nM
inactive: Hs-578T 2000 nM | TK-10 1170 nM | T47D 1260 nM | SK-OV-3 1220 nM
